The text below walks through data of ChEMBL document CHEMBL6134898, “In Vitro ADME Profiling of PROTACs: Successes, Challenges, and Lessons Learned from Analysis of Clinical PROTACs from a Diverse Physicochemical Space” (J Med Chem, 2025).

SMILES strings stand for the structures. In brackets after ≈: the same amount, converted by molar mass.

Series [1] in a line: Intrinsic clearance in human hepatocytes measured per million cells at 1 uM measured for 0.5 to 120 mins by LC-MS/MS analysis. The format is ADME, cell-based, Hepatocyte. The conditions noted are these: time 0.5-120 min, read-out: CLH.
Series [2] in a line: Intrinsic clearance in rat hepatocytes measured per million cells at 1 uM measured for 0.5 to 120 mins by LC-MS/MS analysis. Format: ADME, cell-based, Hepatocyte. The conditions noted are these: time 0.5-120 min, read-out: CLH.
The nature of series [3]: Intrinsic clearance in mouse hepatocytes measured per million cells at 1 uM measured for 0.5 to 120 mins by LC-MS/MS analysis. The format is ADME, cell-based, Hepatocyte. The conditions noted are these: time 0.5-120 min, read-out: CLH.
The nature of series [4]: Solubility of compound in SGF at pH 1.2 measured after 24 hrs by UPLC analysis. Format: physicochemical.
The nature of series [5]: Solubility of compound in FaSSIF at pH 6.5 measured after 24 hrs by UPLC analysis. Format: physicochemical.
Series [6] can be described thus: Apparent permeability across apical to basal side in human Caco-2 cells at 1 uM incubated for 120 mins followed by ACN addition by LC-MS/MS analysis. Format: ADME, cell-based. A general note: Caco-2 monolayers are a common model of the intestinal barrier.
Series [7] is described as follows: Blood to plasma partitioning ratio in rat at 10 uM incubated for 30 mins by LC-MS/MS analysis. The format is ADME, cell-free. The conditions noted are these: whole blood.
The nature of series [8]: Stability in human plasma at 5 uM incubated for 18 hrs by LC-MS/MS analysis. Format: ADME, cell-free. The conditions noted are these: read-out: Stability.
Series [9] can be described thus: Protein binding in rat plasma assessed as free fraction at 5 uM incubated for 18 hrs by LC-MS/MS analysis. Format: ADME, cell-free.
Series [10] is described as follows: Protein binding in monkey plasma assessed as free fraction at 5 uM incubated for 18 hrs by LC-MS/MS analysis. Format: ADME, cell-free, Macaca mulatta. The conditions noted are these: rhesus monkey.
A short description of series [11]: Protein binding in dog plasma assessed as free fraction at 5 uM incubated for 18 hrs by LC-MS/MS analysis. Format: ADME, cell-free, Canis lupus familiaris.
Series [12] is described as follows: Protein binding in human plasma assessed as free fraction at 5 uM incubated for 18 hrs by LC-MS/MS analysis. Format: ADME, cell-free.
The nature of series [13]: Blood to plasma partitioning ratio in dog at 10 uM incubated for 30 mins by LC-MS/MS analysis. Format: ADME, cell-free, Canis lupus familiaris. The conditions noted are these: whole blood.
Series [14] in a line: Lipophilicity, LogD of compound by Chromatography. Format: physicochemical.
Series [15] can be described thus: Protein binding in human plasma assessed as compound recovery at 5 uM incubated for 18 hrs by LC-MS/MS analysis. The conditions noted are these: read-out: Drug recovery. Format: ADME, cell-free.
Series [16] can be described thus: Intrinsic clearance in monkey hepatocytes measured per million cells at 1 uM measured for 0.5 to 120 mins by LC-MS/MS analysis. Format: ADME, cell-based, Macaca mulatta, Hepatocyte. The conditions noted are these: rhesus monkey, time 0.5-120 min, read-out: CLH.
A short description of series [17]: Apparent permeability across apical to basal side in human Caco-2 cells at 1 uM incubated for 120 mins by LC-MS/MS analysis. The format is ADME, cell-based.
A short description of series [18]: Protein binding in rat hepatocytes assessed as free fraction at 5 uM incubated for 18 hrs by LC-MS/MS analysis. Format: ADME, cell-based, Hepatocyte.
Series [19] is described as follows: Solubility of compound in FeSSIF at pH 5 measured after 24 hrs by UPLC analysis. Format: physicochemical.
Series [20] can be described thus: Protein binding in mouse plasma assessed as free fraction at 5 uM incubated for 18 hrs by LC-MS/MS analysis. Format: ADME, cell-free.
Series [21] can be described thus: Blood to plasma partitioning ratio in human at 10 uM incubated for 30 mins by LC-MS/MS analysis. The format is ADME, cell-free. The conditions noted are these: whole blood.
Series [22] in a line: Intrinsic clearance in dog hepatocytes measured per million cells at 1 uM measured for 0.5 to 120 mins by LC-MS/MS analysis. Format: ADME, cell-based, Canis lupus familiaris, Hepatocyte. The conditions noted are these: time 0.5-120 min, read-out: CLH.

For the compound `CN1CCN([C@@H]2CCCN(c3cnc(C(N)=O)c(Nc4ccc(C5CCN(CC6CCN(c7ccc(C(=O)N[C@H]8CCC(=O)NC8=O)nc7)CC6)CC5)cc4)n3)C2)C1=O` [NX-5948], the hepatocyte CLint at 1 µM in series [1] was determined as 5 µL/min/1e6 cells; in [2], 3 µL/min/1e6 cells; in series [3], 4 µL/min/1e6 cells; in series [16], 16 µL/min/1e6 cells; in series [22], 3 µL/min/1e6 cells. The figures for the solubility at 24 h in series [4], in series [5] and in [19] were 559 µg/mL (≈ 693 µM), 2.5 µg/mL (≈ 3.1 µM) and 51 µg/mL (≈ 63.2 µM), respectively. Besides, the Papp A→B (in general, the apparent permeability from the apical to the basolateral side of a cell layer) at 2 h, 1 µM in series [6] was determined as 8.7 ×10⁻⁶ cm/s; in series [17] it was 2.8 ×10⁻⁶ cm/s. The blood plasma ratio at 0.5 h, 10 µM in [7] was found to be 1.1; in series [13], 2.6; in series [21], 1. Besides, in series [8], the remaining at 18 h, 5 µM came to 43%. Moreover, the fraction unbound (in general, free concentration divided by total concentration) at 18 h, 5 µM was found to be 0.073 in [9]; 0.094 in series [10]; 0.067 in series [11]; 0.024 in [12]; 0.178 in series [18]; 0.024 in series [20]. Besides, the chromatographic logD (as a rule, lipophilicity estimated from chromatographic retention) in series [14] came out at 2.2. Moreover, in series [15], the recovery at 18 h, 5 µM is 40%.

As for `O=C1CC[C@H](N2Cc3cc(N4CCN(CC5CCN(c6ccc([C@@H]7c8ccc(O)cc8CC[C@@H]7c7ccccc7)cc6)CC5)CC4)ccc3C2=O)C(=O)N1` [VEPDEGESTRANT], the hepatocyte CLint at 1 µM in series [1] came out at 3 µL/min/1e6 cells; in series [2], 9 µL/min/1e6 cells; in series [3] it was 23 µL/min/1e6 cells; in series [16], 5 µL/min/1e6 cells; in series [22], 3 µL/min/1e6 cells. The results for the solubility at 24 h in series [4], in series [5] and in series [19] were 230 µg/mL (≈ 318 µM), 2.6 µg/mL (≈ 3.59 µM) and 274 µg/mL (≈ 378 µM), respectively. For the same compound, the apical-to-basolateral permeability (Papp A→B) at 2 h, 1 µM in [6] and in series [17] was under 0.1 ×10⁻⁶ cm/s each time. Further, the blood plasma ratio at 0.5 h, 10 µM in series [7] stood at 0.6; in series [13], 0.5; in series [21] it was 0.7. In addition, the remaining at 18 h, 5 µM in series [8] turned out to be 77%. Also, the fraction unbound at 18 h, 5 µM was under 0.001 in series [9]; under 0.002 in series [10]; under 0.001 in series [11]; under 0.003 in series [12]; under 0.001 in [18]; under 0.001 in [20]. The chromatographic logD in series [14] was 5.7. In addition, the recovery at 18 h, 5 µM in [15] was found to be 77%.
